What was measured:
Type in all cases: functional
ACHN = test: Cytotoxicity against Homo sapiens (human) ACHN cells assessed as growth inhibition at 10 uM after 48 hr by coulter counter analysis; conditions: read-out: GI
MDA-MB-231 = test: Cytotoxicity against Homo sapiens (human) MDA-MB-231 cells assessed as growth inhibition at 10 uM after 48 hr by coulter counter analysis; conditions: MDA-MB-231, 48 h, read-out: GI
OVCAR-3 = test: Cytotoxicity against Homo sapiens (human) OVCAR3 cells assessed as growth inhibition at 10 uM after 48 hr by coulter counter analysis; conditions: OVCAR-3, 48 h, read-out: GI
HCT-116 = test: Cytotoxicity against Homo sapiens (human) HCT116 cells assessed as growth inhibition at 10 uM after 48 hr by coulter counter analysis; conditions: HCT-116, 48 h, read-out: GI
HCT-15 = test: Cytotoxicity against Homo sapiens (human) HCT15 cells assessed as growth inhibition at 10 uM after 48 hr by coulter counter analysis; conditions: HCT-15, 48 h, read-out: GI
MDA-MB-435 = test: Cytotoxicity against Homo sapiens (human) MDA-MB-435 cells assessed as growth inhibition at 10 uM after 48 hr by coulter counter analysis; conditions: MDA-MB-435, 48 h, read-out: GI
KM12 = test: Cytotoxicity against Homo sapiens (human) KM12 cells assessed as growth inhibition at 10 uM after 48 hr by coulter counter analysis; conditions: KM12, 48 h, read-out: GI
Malme-3M = test: Cytotoxicity against Homo sapiens (human) MALME-3M cells assessed as growth inhibition at 10 uM after 48 hr by coulter counter analysis; conditions: read-out: GI
SNB-19 = test: Cytotoxicity against Homo sapiens (human) SNB19 cells assessed as growth inhibition at 10 uM after 48 hr by coulter counter analysis; conditions: SNB-19, 48 h, read-out: GI
OVCAR-8 = test: Cytotoxicity against Homo sapiens (human) OVCAR8 cells assessed as growth inhibition at 10 uM after 48 hr by coulter counter analysis; conditions: OVCAR-8, 48 h, read-out: GI
HCC 2998 = test: Cytotoxicity against Homo sapiens (human) HCC2998 cells assessed as growth inhibition at 10 uM after 48 hr by coulter counter analysis; conditions: HCC 2998, 48 h, read-out: GI
TK-10 = test: Cytotoxicity against Homo sapiens (human) TK10 cells assessed as growth inhibition at 10 uM after 48 hr by coulter counter analysis; conditions: TK-10, 48 h, read-out: GI
LOX IMVI = test: Cytotoxicity against Homo sapiens (human) LOXIMVI cells assessed as growth inhibition at 10 uM after 48 hr by coulter counter analysis; conditions: read-out: GI
SN12C = test: Cytotoxicity against Homo sapiens (human) SN12C cells assessed as growth inhibition at 10 uM after 48 hr by coulter counter analysis; conditions: read-out: GI
PC-3 = test: Cytotoxicity against Homo sapiens (human) PC3 cells assessed as growth inhibition at 10 uM after 48 hr by coulter counter analysis; conditions: PC-3, 48 h, read-out: GI
SK-OV-3 = test: Cytotoxicity against Homo sapiens (human) SKOV3 cells assessed as growth inhibition at 10 uM after 48 hr by coulter counter analysis; conditions: SK-OV-3, 48 h, read-out: GI
A549 = test: Cytotoxicity against Homo sapiens (human) A549 cells assessed as growth inhibition at 10 uM after 48 hr by coulter counter analysis; conditions: A549, 48 h, read-out: GI
HT-29 = test: Cytotoxicity against Homo sapiens (human) HT-29 cells assessed as growth inhibition at 10 uM after 48 hr by coulter counter analysis; conditions: HT-29, 48 h, read-out: GI
COLO 205 = test: Cytotoxicity against Homo sapiens (human) COLO205 cells assessed as growth inhibition at 10 uM after 48 hr by coulter counter analysis; conditions: COLO 205, 48 h, read-out: GI
OVCAR-5 = test: Cytotoxicity against Homo sapiens (human) OVCAR5 cells assessed as growth inhibition at 10 uM after 48 hr by coulter counter analysis; conditions: OVCAR-5, 48 h, read-out: GI
OVCAR-4 = test: Cytotoxicity against Homo sapiens (human) OVCAR4 cells assessed as growth inhibition at 10 uM after 48 hr by coulter counter analysis; conditions: OVCAR-4, 48 h, read-out: GI
NCI-H322M = test: Cytotoxicity against Homo sapiens (human) NCI-H322M cells assessed as growth inhibition at 10 uM after 48 hr by coulter counter analysis; conditions: read-out: GI
SF-295 = test: Cytotoxicity against Homo sapiens (human) SF295 cells assessed as growth inhibition at 10 uM after 48 hr by coulter counter analysis; conditions: SF-295, 48 h, read-out: GI
SK-MEL-28 = test: Cytotoxicity against Homo sapiens (human) SK-MEL-28 cells assessed as growth inhibition at 10 uM after 48 hr by coulter counter analysis; conditions: SK-MEL-28, 48 h, read-out: GI
U-251 = test: Cytotoxicity against Homo sapiens (human) U251 cells assessed as growth inhibition at 10 uM after 48 hr by coulter counter analysis; conditions: U-251, 48 h, read-out: GI
MCF7 = test: Cytotoxicity against Homo sapiens (human) MCF7 cells assessed as growth inhibition at 10 uM after 48 hr by coulter counter analysis; conditions: MCF7, 48 h, read-out: GI
IGROV-1 = test: Cytotoxicity against Homo sapiens (human) IGROV1 cells assessed as growth inhibition at 10 uM after 48 hr by coulter counter analysis; conditions: IGROV-1, 48 h, read-out: GI
BT-549 = test: Cytotoxicity against Homo sapiens (human) BT549 cells assessed as growth inhibition at 10 uM after 48 hr by coulter counter analysis; conditions: BT-549, 48 h, read-out: GI
M14 = test: Cytotoxicity against Homo sapiens (human) M14 cells assessed as growth inhibition at 10 uM after 48 hr by coulter counter analysis; conditions: M14, 48 h, read-out: GI
SW-620 = test: Cytotoxicity against Homo sapiens (human) SW620 cells assessed as growth inhibition at 10 uM after 48 hr by coulter counter analysis; conditions: SW-620, 48 h, read-out: GI
DU-145 = test: Cytotoxicity against Homo sapiens (human) DU145 cells assessed as growth inhibition at 10 uM after 48 hr by coulter counter analysis; conditions: DU-145, 48 h, read-out: GI
SF-268 = test: Cytotoxicity against Homo sapiens (human) SF268 cells assessed as growth inhibition at 10 uM after 48 hr by coulter counter analysis; conditions: SF-268, 48 h, read-out: GI
MDA-MB-468 = test: Cytotoxicity against Homo sapiens (human) MDA-MB-468 cells assessed as growth inhibition at 10 uM after 48 hr by coulter counter analysis; conditions: MDA-MB-468, 48 h, read-out: GI
SF-539 = test: Cytotoxicity against Homo sapiens (human) SF539 cells assessed as growth inhibition at 10 uM after 48 hr by coulter counter analysis; conditions: SF-539, 48 h, read-out: GI

Row | Compound | inhibition of growth at 10 µM (ACHN) [%] | inhibition of growth at 10 µM (MDA-MB-231) [%] | inhibition of growth at 10 µM (OVCAR-3) [%] | inhibition of growth at 10 µM (HCT-116) [%] | inhibition of growth at 10 µM (HCT-15) [%] | inhibition of growth at 10 µM (MDA-MB-435) [%] | inhibition of growth at 10 µM (KM12) [%] | inhibition of growth at 10 µM (Malme-3M) [%] | inhibition of growth at 10 µM (SNB-19) [%] | inhibition of growth at 10 µM (OVCAR-8) [%] | inhibition of growth at 10 µM (HCC 2998) [%] | inhibition of growth at 10 µM (TK-10) [%] | inhibition of growth at 10 µM (LOX IMVI) [%] | inhibition of growth at 10 µM (SN12C) [%] | inhibition of growth at 10 µM (PC-3) [%] | inhibition of growth at 10 µM (SK-OV-3) [%] | inhibition of growth at 10 µM (A549) [%] | inhibition of growth at 10 µM (HT-29) [%] | inhibition of growth at 10 µM (COLO 205) [%] | inhibition of growth at 10 µM (OVCAR-5) [%] | further results
1 | O=c1c2ccccc2nc(SCCN2CCOCC2)n1CCc1ccccc1 | < 10 | < 10 | < 10 | < 10 | < 10 | < 10 | < 10 | < 10 | < 10 | < 10 | < 10 | < 10 | < 10 | < 10 | 14 | < 10 | < 10 | < 10 | < 10 | < 10 | inhibition of growth at 10 µM (OVCAR-4): < 10%; inhibition of growth at 10 µM (NCI-H322M): < 10%; inhibition of growth at 10 µM (SF-295): < 10%; inhibition of growth at 10 µM (SK-MEL-28): < 10%; inhibition of growth at 10 µM (U-251): < 10%; inhibition of growth at 10 µM (MCF7): < 10%; inhibition of growth at 10 µM (IGROV-1): < 10%; inhibition of growth at 10 µM (BT-549): < 10%; inhibition of growth at 10 µM (M14): < 10%; inhibition of growth at 10 µM (SW-620): < 10%; inhibition of growth at 10 µM (DU-145): < 10%; inhibition of growth at 10 µM (SF-268): < 10%; inhibition of growth at 10 µM (MDA-MB-468): < 10%; inhibition of growth at 10 µM (SF-539): < 10%
2 | O=C1c2ccccc2C(=O)N1CCCSc1nc2ccccc2c(=O)n1CCc1ccccc1 | < 10 | 14 | < 10 | 21 | 31 | < 10 | < 10 | < 10 | < 10 | < 10 | < 10 | < 10 | < 10 | < 10 | 51 | 12 | 18 | 13 | < 10 | < 10 | inhibition of growth at 10 µM (OVCAR-4): < 10%; inhibition of growth at 10 µM (NCI-H322M): < 10%; inhibition of growth at 10 µM (SF-295): < 10%; inhibition of growth at 10 µM (SK-MEL-28): < 10%; inhibition of growth at 10 µM (U-251): 15%; inhibition of growth at 10 µM (MCF7): < 10%; inhibition of growth at 10 µM (IGROV-1): < 10%; inhibition of growth at 10 µM (BT-549): < 10%; inhibition of growth at 10 µM (M14): < 10%; inhibition of growth at 10 µM (SW-620): < 10%; inhibition of growth at 10 µM (DU-145): < 10%; inhibition of growth at 10 µM (SF-268): < 10%; inhibition of growth at 10 µM (MDA-MB-468): < 10%; inhibition of growth at 10 µM (SF-539): < 10%
